According to patent publication US20070134261A1, “Effectors of innate immunity” (priority 2001, published 2007):
≈ marks a conversion by molar mass, not a printed value. Like-named read-outs stand apart in the source and are kept apart here. Residues, ends and D or L forms follow the SMILES beside them. No end group written: not given here.

Key:
[1] = system: human PBMC; test: TLR agonist / cytokine induced cytokine secretion by PBMC (ELISA, multiplex bead immunoassay); type: cell-based
Protocol: All assays were performed in triplicate.

[2] = type: cell-based
[3] = system: HBE cells; test: WST-1 assay (cell viability); type: cell-based, human
Protocol: (§1) The potential toxicity of the peptides was measured in two ways. First, the Cytotoxicity Detection Kit (Roche) (Lactate dehydrogenase-LDH) Assay was used. It is a colorimetric assay for the quantification of cell death and cell lysis, based on the measurement of LDH activity released from the cytosol of damaged cells into the supernatant. LDH is a stable cytoplasmic enzyme present in all cells and it is released into the cell culture supernatant upon damage of the plasma membrane. An increase in the amount of dead or plasma membrane-damaged cells results in an increase of the LDH enzyme activity in the culture supernatant as measured with an ELISA plate reader, OD490 nm (the amount of color formed in the assay is proportional to the number of lysed cells). In this assay, human bronchial epithelial cells (I6HBEo14, HBE) cells were incubated with 100 μg of peptide for 24 hours, the supernatant removed and tested for LDH. The other assay used to measure toxicity of the cationic peptides was the WST-1 assay (Roche). This assay is a colorimetric assay for the quantification of cell proliferation and cell viability, based on the cleavage of the tetrazolium salt WST-1 by mitochondrial dehydrogenases in viable cells (a non-radioactive alternative to the [^3H]-thymidine incorporation assay). In this assay, HBE cells were incubated with 100 μg of peptide for 24 hours, and then 10 μl/well Cell Proliferation Reagent WST-1 was added. The cells are incubated with the reagent and the plate is then measured with an ELISA plate reader, OD490 nm.

[4] = system: A549 human epithelial cells; test: Induction of chemokines (IL-8, MCP-1) in A549 cells (ELISA); type: cell-based; conditions: peptide 10 ug/ml, 24 hr
Protocol: The murine macrophage cell line RAW 264.7, THP-1 cells (human monocytes), a human epithelial cell line (A549), human bronchial epithelial cells (16HBEo14), and whole human blood were used. HBE cells were grown in MEM with Earle's. THP-1 cells were grown and maintained in RPMI 1640 medium. The RAW and A549 cell lines were maintained in DMEM supplemented with 10% fetal calf serum. […] DMEM was aspirated from cells grown overnight and replaced with fresh medium. After incubation of the cells with peptide, the release of chemokines into the culture supernatant was determined by ELISA (R&D Systems, Minneapolis, Minn.).

[5] = system: RAW 264.7 mouse macrophage cells; type: cell-based; conditions: Peptide 20 μg/ml; 100 ng/ml E. coli 0111:B4 LPS, 6 h
[6] = system: human bronchial epithelial cells (HBE); test: LDH release assay (Cytotoxicity Detection Kit); type: cell-based; conditions: 100 μg/ml, 24 hours; no peptide control 1.0 ± 0.05
Protocol: as §1

[7] = system: A549 epithelial cells; test: Human Operon arrays (PRHU04-S1) of A549 cells treated with peptide alone (Tables 31-37, 53); conditions: peptide 50 μg/ml, 4 h, A549 cells
[8] = Escherichia coli, overnight, 96-well plate
[9] = Staphylococcus aureus, overnight, 96-well plate
[10] = Citobacter rhodensis, overnight, 96-well plate
[11] = Enterohaemorrhagic E. coli, overnight, 96-well plate
[12] = Pseudomonas aeruginosa, overnight, 96-well plate
[13] = Salmonella enteritidis ssp. typhimurium, overnight, 96-well plate

Row | Compound | MIC, C. rhod. ([2]; 24 h) [µg/mL] | MIC, E. coli ([2]; 24 h) [µg/mL] | MIC, EHEC ([2]; 24 h) [µg/mL] | MIC, S. aureus ([2]; 24 h) [µg/mL] | MIC, S. typhim. ([2]; 24 h) [µg/mL] | OD490 nm (WST-1 cell viability) [3] [OD490 nm] | LDH Release (OD490 nm) [6] [OD490 nm] | MIC, P. aerug. ([2]; 24 h) [µg/mL] | other results
1 | 5′-TCATGACGTTCCTGACGTT-3′ (chemistry not given here) [CpG, reference compound] |  |  |  |  |  |  |  |  | IL-6, Ave pg/ml ([1]; 4 hr, CpG −SEQ ID NO: 1): <7 pg/mL; IL-8, Ave pg/ml ([1]; 4 hr, CpG −SEQ ID NO: 1): 20 pg/mL; TNF-α, Ave pg/ml ([1]; 4 hr, CpG −SEQ ID NO: 1): 28 pg/mL; IL-6, Ave pg/ml ([1]; 24 hr, CpG −SEQ ID NO: 1): 66 pg/mL; IL-8, Ave pg/ml ([1]; 24 hr, CpG −SEQ ID NO: 1): 339 pg/mL; TNF-α, Ave pg/ml ([1]; 24 hr, CpG −SEQ ID NO: 1): 28 pg/mL
2 | CC[C@H](C)[C@H](NC(=O)CNC(=O)[C@H](CCCNC(=N)N)NC(=O)[C@H](CCSC)NC(=O)[C@H](C)NC(=O)[C@@H](NC(=O)[C@H](CCCNC(=N)N)NC(=O)[C@H](CCCCN)NC(=O)[C@@H](NC(=O)[C@H](CS)NC(=O)[C@@H](NC(=O)[C@@H](N)CCCNC(=N)N)[C@@H](C)O)C(C)C)C(C)C)C(=O)N[C@H](C(=O)N[C@@H](CCCNC(=N)N)C(=O)N[C@@H](CCCCN)C(=O)N[C@@H](CCCNC(=N)N)C(=O)N[C@@H](CS)C(=O)N[C@@H](CCCNC(=N)N)C(=O)O)[C@@H](C)CC [SEQ ID NO: 33] (H-RTCVKRVAMRGIIRKRCR-OH; N-terminus and C-terminus assumed) | 64 (≈ 29.1 µM) | 16 (≈ 7.26 µM) | 8 (≈ 3.63 µM) | 32 (≈ 14.5 µM) | 16 (≈ 7.26 µM) | 1.75 ± 0.21 | 1.03 ± 0.05 |  | IL-8 [4]: 0.328 ng/mL; Inhibition of TNF-α [5]: 62.1 ± 0.08%
3 | ELPLKRGRVPVE [SEQ ID NO: 16] |  |  |  |  |  | 1.39 ± 0.26 | 0.91 ± 0.04 |  | ID#:ctrl intensity ratio, M14565 cytochrome P450 [7]: 10.1
4 | IL-1β |  |  |  |  |  |  |  |  | IL-6, Ave pg/ml ([1]; 4 hr, IL-1β −SEQ ID NO: 1): 39 pg/mL; IL-8, Ave pg/ml ([1]; 4 hr, IL-1β −SEQ ID NO: 1): 124 pg/mL; TNF-α, Ave pg/ml ([1]; 4 hr, IL-1β −SEQ ID NO: 1): 97 pg/mL; IL-6, Ave pg/ml ([1]; 24 hr, IL-1β −SEQ ID NO: 1): 645 pg/mL; IL-8, Ave pg/ml ([1]; 24 hr, IL-1β −SEQ ID NO: 1): 3034 pg/mL; TNF-α, Ave pg/ml ([1]; 24 hr, IL-1β −SEQ ID NO: 1): 20 pg/mL
5 | KKSPIAPAIPWSR (Cationic peptide) [SEQ ID NO: 8, Formula A cationic peptide] |  |  |  |  |  |  |  |  | MIC, E. coli [2, 8]: >; MIC, S. aureus [2, 9]: >; Inhibition of TNF-α [5]: 39.3 ± 1.9%
6 | KWKHALMKAHMLWHMIFHTALKPISS [SEQ ID NO: 52] | 2 | 8 | 2 |  | 8 |  |  | 32 | MIC, S. aureus [2, 9]: >; IL-8 [4]: 0.207 ng/mL
7 | KWKKWAHSPRKVLTRIFHTALKPISS [SEQ ID NO: 50] | 16 | 8 | 8 |  | 16 |  |  | 16 | MIC, S. aureus [2, 9]: >; IL-8 [4]: 0.141 ng/mL
8 | KWKRGAHRFMKFLSTIFHTALKPISS [SEQ ID NO: 49] | 4 | 4 | 4 |  | 8 |  |  | 16 | MIC, S. aureus [2, 9]: >; IL-8 [4]: 0.301 ng/mL; Inhibition of TNF-α [5]: 86.9 ± 0.69%
9 | KWKSLVMMFKKPARRIFHTALKPISS [SEQ ID NO: 51] |  |  |  |  |  |  |  |  | MIC, C. rhod. [2, 10]: 4 µg/mL; MIC, EHEC [2, 11]: 8 µg/mL; MIC, E. coli [2, 8]: 4 µg/mL; MIC, P. aerug. [2, 12]: 8 µg/mL; MIC, S. typhim. [2, 13]: 32 µg/mL; MIC, S. aureus [2, 9]: >; IL-8 [4]: 0.255 ng/mL
10 | KWKSYAHTIMSPVRLVFHTALKPISS [SEQ ID NO: 54] |  |  |  |  |  |  |  |  | MIC, C. rhod. [2, 10]: 16 µg/mL; MIC, EHEC [2, 11]: 32 µg/mL; MIC, E. coli [2, 8]: 64 µg/mL; MIC, P. aerug. [2, 12]: 16 µg/mL; MIC, S. typhim. [2, 13]: 64 µg/mL; MIC, S. aureus [2, 9]: >; IL-8 [4]: 0.133 ng/mL; Inhibition of TNF-α [5]: 64 ± 0.73%
11 | PAM3 |  |  |  |  |  |  |  |  | IL-1β, Ave pg/ml ([1]; 4 hr, PAM3 −SEQ ID NO: 1): 34 pg/mL; IL-6, Ave pg/ml ([1]; 4 hr, PAM3 −SEQ ID NO: 1): 435 pg/mL; IL-8, Ave pg/ml ([1]; 4 hr, PAM3 −SEQ ID NO: 1): 738 pg/mL; TNF-α, Ave pg/ml ([1]; 4 hr, PAM3 −SEQ ID NO: 1): 830 pg/mL; IL-1β, Ave pg/ml ([1]; 24 hr, PAM3 −SEQ ID NO: 1): 512 pg/mL; IL-6, Ave pg/ml ([1]; 24 hr, PAM3 −SEQ ID NO: 1): 7734 pg/mL; IL-8, Ave pg/ml ([1]; 24 hr, PAM3 −SEQ ID NO: 1): 7620 pg/mL; TNF-α, Ave pg/ml ([1]; 24 hr, PAM3 −SEQ ID NO: 1): 2334 pg/mL
12 | RAAFKWAWAWWRRK [SEQ ID NO: 23] | 4 | 4 | 4 | 8 | 16 | 1.14 ± 0.24 | 1.26 ± 0.46 | 8 | 
13 | RAPYWPWAWARPRK [SEQ ID NO: 21] | 32 | 64 | 32 | 64 | 64 | 1.28 ± 0.07 | 1.06 ± 0.04 | 96 | 
14 | RKMVKVDVRGIMIRKDRR [SEQ ID NO: 29] | 32 | 2 | 4 |  | 16 | 1.75 ± 0.09 | 0.99 ± 0.02 |  | 
15 | RPAWKYWWPWPWPRRK [SEQ ID NO: 22] | 4 | 8 | 4 | 12 | 8 | 1.33 ± 0.07 | 1.29 ± 0.12 | 24 | ID#:ctrl intensity ratio, X65962 cytochrome P-450 [7]: 5.1
16 | RPRYPWWPWWPYRPRK [SEQ ID NO: 19] | 4 | 8 | 4 | 16 | 64 | 1.42 ± 0.15 | 1.08 ± 0.02 | 16 | ID#:ctrl intensity ratio, X65962 cytochrome P-450 [7]: 3.8
17 | RRAWWKAWWARRK [SEQ ID NO: 20] | 16 | 8 | 8 | 8 | 8 | 1.61 ± 0.21 | 1.05 ± 0.03 | 8 | 
18 | RRDCRRVMVRGIDIKAK [SEQ ID NO: 36] | 32 | 32 | 16 |  | 32 | 1.58 ± 0.05 | 0.85 ± 0.04 |  | 
19 | RREAIRRVAMRGRDMKRMRR [SEQ ID NO: 31] |  |  | 64 |  |  | 1.84 ± 0.06 | 0.98 ± 0.03 | 128 | 
20 | RRRWKWAWPRRK [SEQ ID NO: 24] | 16 | 16 | 4 | 16 | 16 | 1.27 ± 0.16 | 1.05 ± 0.01 | 4 | 
21 | TNF-α |  |  |  |  |  |  |  |  | IL-1β, Ave pg/ml ([1]; 4 hr, TNF-α −SEQ ID NO: 1): 74 pg/mL; IL-8, Ave pg/ml ([1]; 4 hr, TNF-α −SEQ ID NO: 1): 54 pg/mL; IL-1β, Ave pg/ml ([1]; 24 hr, TNF-α −SEQ ID NO: 1): 94 pg/mL; IL-6, Ave pg/ml ([1]; 24 hr, TNF-α −SEQ ID NO: 1): 9 pg/mL; IL-8, Ave pg/ml ([1]; 24 hr, TNF-α −SEQ ID NO: 1): 4410 pg/mL
